The values that follow come from patent US8377886B2, “Use of gamma secretase inhibitors and notch pathway inhibitors for treatment and prevention of renal disease” (Albert Einstein College of Medicine of Yeshiva University, priority 2007, dated 2013).

Assay [1] has as its system podocytes. Description: ICN1 induced podocyte apoptosis, AnnexinV staining. The assay is classed as cell-based, mouse. As to conditions: for ICN1 induced increase in annexinV positive cell number: tamoxifen 1.5 μM, counted 24 hrs after induction, GSIXX 4 μM, pifithrin-alpha 15 μM. The method, then:
(§1) Infection of Podocytes. Cultivation of conditionally immortalized mouse podocytes was performed as described^41. Briefly, cells were propagated in the undifferentiated state on type1 collagen at 33° C. in RPMI 1640 in the presence of 10% FBS (Hyclone) and 20 U/ml interferon γ (Sigma Chemical Co., St Louis, Mo.). To induce differentiation, cells were maintained at 37° C. without interferon for 10 days. Podocytes were infected with MIGR-ICN1-EGFP (kind gift of Dr Warren Pear, University of Pennsylvania) or pBMN-EGFP (Orbigen) retrovirus. Briefly vectors were transfected into Phoenix Eco packaging cells (Orbigen) and supernatant was harvested 60-72 hrs after transfection. Podocytes were infected with virus containing supernatant (3-4 times, every 6 hours) in the presence of polybrene […]. After 24 hrs of infection, the medium was changed and cells were either treated with tamoxifen to induce ICN1 expression or left untreated. Infection efficiency was estimated under fluorescence microscope by the presence of GFP positive cells as it ranged from 70-80%.
AnnexinV staining. AnnexinV staining was performed using AnnexinV-Alexa 568 staining kit (Roche). Cells were cultured in 24 well plates, washed and incubated with AnnexinV-Alexa 568 in incubation buffer according to manufacturer's instruction. Cells were washed, and fluorescent labeled cells were counted. Total number of cells were counted by DAPI counterstain. Nuclear condensation was assessed by DAPI staining.

The next assay relates to ICN1. Kind of assay: TGFβ induced increase of ICN1 levels in cultured podocytes, Western blot. The assay is classed as cell-based, mouse. Conditions: 5 ng/ml TGFβ; 100 nM GSI XX; 10 μM SB203580, PD or LY; GSI IX and GSI X data not shown. The method, then: as §1
Western Blotting. Cells were lysed in RIPA buffer in the presence of protease and phosphatase inhibitors; equal amount (30 μg) of protein was loaded on 10% SDS gels. Gels were transferred to PVDF membranes (Bio-Rad), blocked in 5% milk and incubated with the primary antibody (1:1,000 dilution) overnight at 4° C. in 1% milk. Membranes were incubated with HRP conjugated anti-mouse or anti-rabbit secondary antibody (Jackson Immunologicals) for 1 hr at room temperature and developed using ECL method (Pierce). The following primary antibodies were used in this study; phospho-p38 (#4631), total p38 (#9217), phospho-AKT (#4051), total AKT (#9272), cleaved PARP, cleaved caspase3, phospho-53 were from Cell Signaling, phospho-JNK, p53, p21 were from Santa Cruz Val^1744ICN1 and β-actin antibody was purchased from Abcam (Cambridge, Mass.).

Assay [2] relates to Smad3 and Akt phosphorylation. Kind of assay: TGFβ induced Smad3 and Akt phosphorylation in podocytes, Western blot. In kind it is cell-based, mouse. As to conditions: 5 ng/ml TGFβ; GSI XX 1 μM. The procedure: as §1
(§2) Western Blotting. Cells were lysed in RIPA buffer in the presence of protease and phosphatase inhibitors; equal amount (30 μg) of protein was loaded on 10% SDS gels. Gels were transferred to PVDF membranes (Bio-Rad), blocked in 5% milk and incubated with the primary antibody (1:1,000 dilution) overnight at 4° C. in 1% milk. […]

The subject of the next assay is p53. Description: TGFβ induced phosphorylated p53 levels in podocytes, Western blot. Conditions: after 4 hrs of incubation with TGFβ. In kind it is cell-based, mouse. The method, then: as §1, §2
In assay [3] the test system is podocytes. Kind of assay: TGFβ induced podocyte apoptosis, annexinV positive cell number. In kind it is cell-based, mouse. Conditions: 24 hrs following TGFβ; pre-incubation GSIXX 1 μM or pifithrinα 15 μM. The procedure:
as §1
AnnexinV staining. AnnexinV staining was performed using AnnexinV-Alexa 568 staining kit (Roche). […] Cells were washed, and fluorescent labeled cells were counted. Total number of cells were counted by DAPI counterstain. Nuclear condensation was assessed by DAPI staining.

The next assay has as its system PAN treated rats. Description: PAN induced nephrotic syndrome in rats. In kind it is in vivo, rat. The procedure:
Male Sprague Dawley rats (75-100 gr˜4 weeks old) were purchased from Charles Rivers. Animals were injected with puromycin aminonucleoside 20 mg/kg ip ×1. BDZ (dissolved in Methocell, Tween-80) was administered ip 500 μg/100 gr rat once a day. Animals were sacrificed on day 8 after PAN administration.
Phenotypic analysis. Albuminuria was determined using Mouse or Rat Albumin specific ELISA kits (Exocell and Bethyl Laboratories) and urine creatinine was determined using Creatinine companion (Exocell), following manufacturer's protocol.
Histologic analysis. Histologic analysis was performed on formalin fixed paraffin embedded kidney sections that was stained with Periodic-Acid-Schiff (PAS) or Gomori Trichrome. Slides were examined and pictures were taken with Nikon Eclipse TE300 microscope and SPOT Diagnostic CCD camera. Transmission electron microscopy was performed in the Analytical Imaging Facility at AECOM on glutaraldehyde fixed, epoxy embedded kidney samples stained with uranyl acetate and lead citrate. Samples were evaluated using JEOL 1200EX, electron microscope (AECOM, Analytical Imaging Facility).
Immunohistochemistry. Immunohistochemistry was performed on formalin fixed paraffin embedded kidney sections using the following primary antibodies Val^1744ICN1 (Abcam), ICN2 (Abeam). Staining was visualized using peroxidase conjugated anti mouse of anti rabbit Vectastain Elite kit and DAB (Vector Labs). Terminal d-UTP labeling (TUNEL) staining was performed using TUNEL kit (Chemicon) following manufacturer's instructions. For fluorescent labeling, 5 μm frozen sections were fixed in ice cold acetone, blocked with 10% horse serum and incubated with primary antibodies, WT-1 (Santa Cruz), nephrin (kind gift of Dr Lawrence Holzman, University of Michigan), synaptopodin and podocin (Sigma-Aldrich), p21 (Santa Cruz), and developed using FITC conjugated anti-mouse secondary antibody or Cy3 conjugated anti-rabbit antibodies (Jackson laboratory) and mounted with Fluoromount).
Glomerular isolation. Glomerular isolation was performed using serial sieving of 120, 100 and 71 μm diameter.
QRT-PCR. RNA was prepared from isolated glomeruli or from podocytes using RNAeasy Mini kit (Qiagen, Valencia). The quality was analyzed on agarose gels and the quantity was measured on NanoDrop. 1 ug RNA was reverse transcribed using cDNA Archival Kit (Applied Biosystems). QRT-PCR analysis was performed using ABI 7900HT-Sequence Detection System. SYBR Green Master Mix and 3-step standard cycling conditions and sequence specific primers for QRT-PCR analysis were used. Melting curve was examined to verify that a single product was amplified. For quantitative analysis all samples were normalized to ubiquitin C and HPGRT gene expression using the ΔΔCT value method.
It was examined whether the Notch pathway inhibition (with the use of a gamma-secretase inhibitor) could be used as a potential strategy for the treatment of albuminuric glomerular disease^31. Rats we treated with DBZ 500 μg/100 gr ip. daily stating 12 hrs prior to PAN injection. Animals were sacrificed on day 8 as the PAN treated rats appeared moribund and most of them had severe nephrotic syndrome (ascites and edema). DBZ treatment normalized the Notch pathway gene expression increase of PAN treated rats (FIG. 1e, FIG. 12a). […] Similarly, expression of p53 and p21 was lower in BDZ treated rats compared to PAN only injected animals (FIG. 110.

A further assay has as its system Balb/c mice. Description: Adriamycin (doxorubicin) induced nephrotic syndrome of mice. In kind it is in vivo, mouse. As to conditions: male Balb/c mice, 12 days following 12 mg/kg doxorubicin (adriamycin); doxorubicin only 2659 μg/mg creatinine. The procedure:
Adriamycin-induced nephrotic syndrome was induced in 8 weeks old male Balb/c mice (n=10/per each groups) via intravenous injection (to the tail vein) of 12 mg/kg adriamycin. Animals were sacrificed 12 days following the injection. All animal studies were approved by the Animal Care Committee at the Albert Einstein College of Medicine (AECOM). Animals were maintained under specific pathogen free conditions. Phenotypic analysis. Albuminuria was determined using Mouse or Rat Albumin specific ELISA kits (Exocell and Bethyl Laboratories) and urine creatinine was determined using Creatinine companion (Exocell), following manufacturer's protocol.

Another assay concerns FA-treated mice. Kind of assay: Murine folic acid (FA)-induced nephrotoxicity model. In kind it is in vivo, mouse. As to conditions: FA mice treated for 1 week with DBZ. The procedure:
Experiments were conducted using the murine folic acid (FA)-induced nephrotoxicity model, which is characterized by acute tubular injury followed by both tubular regeneration and chronic changes such as patchy interstitial fibrosis. Strong upregulation was found for mRNA levels of Notch 1-4, the ligands Jagged 1 and 2, delta like-1 and -4, and the downstream target genes Hes1, Hey1, and HeyL in total kidney homogenates 1 day after FA injection, which remained increased up to 1 week.
To further investigate the role of Notch in FA-induced renal injury, mice were treated for 1 week with the gamma-secretase inhibitor (GSI) dibenzazepine (DBZ) that blocks activation of the Notch pathway by interfering with Notch cleavage. […] In control kidneys, large numbers of interstitial fibroblasts and significant tubulointerstitial fibrosis were observed indicating a misdirected renal regeneration.

The test system of assay [4] is unilateral ureteral obstruction model. Kind of assay: Unilateral ureteral obstruction model of renal tubulointerstitial fibrosis. In kind it is in vivo, mouse. As to conditions: animals injected with GSI XX (DBZ). The procedure: Increased Notch pathway gene expression was also observed in mouse models of chronic tubulointerstitial fibrosis (unilateral ureteral obstruction) and in patients with chronic renal disease and tubulointerstitial fibrosis. […] The role and regulation of Notch pathway genes were also examined in other models of tubulointerstitial fibrosis. […] To examine the role of Notch activation in this model, animals were injected with GSI XX (DBZ). DBZ reduced the expression of Notch target gene HeyL and reduced expression of pro-fibrotic genes collagen, fibronectin and alpha smooth muscle action.

In the next assay the test system is p21. Kind of assay: TGFβ induced p21 protein expression in podocytes, Western blot. In kind it is cell-based, mouse. As to conditions: after 24 hrs TGFβ. The procedure:
as §1, §2

The mark [5] stands for this setting: PAN rats, DBZ 500 μg/100 gr ip daily.

In the case of `C[C@H](NC(=O)Cc1cc(F)cc(F)c1)C(=O)N[C@@H]1C(=O)N(C)c2ccccc2-c2ccccc21` [DBZ, (S,S)-2-[2-(3,5-Difluorophenyl)acetylamino]-N-(5-methyl-6-oxo-6,7-dihydro-5H-dibenzo[b,d]azepin-7-yl)propionamide], the “ICN1 induced increase in annexinV positive cell number” value (from here on “ICN1 induced increase”) with podocytes [1] (listed as GSI XX) is listed as “did not alter”. Moreover, the “ICN1 induced increase” value with podocytes [1] (listed as GSIXX) is “did not affect”. Moreover, the “TGFβ induced increase of ICN1 levels” value in the assay on ICN1 is reported as “fully sensitive”. Also, the “TGFβ induced Smad3 and Akt phosphorylation” value in assay [2] was “did not interfere”. In the assay on p53, the “TGFβ induced increase of phosphorylated p53 levels” value was “fully sensitive”. Also, in the assay on podocytes [3], the “TGFβ induced increase in annexinV positive cell number” value was “prevented”. The “Notch pathway gene expression increase of PAN treated rats” value in the assay with PAN treated rats (DBZ 500 μg/100 gr ip daily from 12 hrs prior to PAN, QRT-PCR) was “normalized”. Moreover, in the assay on PAN treated rats (PAN rats, 500 μg/100 gr ip daily, compared to PAN only, after 6 days), the “albuminuria (albumin/creatinine ratio)” value was “significantly less”. Further, in the assay on PAN treated rats (setting [5]), the “foot process effacement (EM analysis)” value is listed as “almost fully abrogated” and the “podocyte apoptosis (TUNEL staining)” value is “fully prevented”. The “decrease in nephrin and podocin levels (mRNA and protein)” value in the assay with PAN treated rats (PAN rats, DBZ 500 μg/100 gr ip daily, day 8) is “protected”. The “expression of p53 and p21” value in the assay on PAN treated rats (PAN rats, whole kidney lysates QRT-PCR, compared to PAN only) is “lower”. Also, the albuminuria with Balb/c mice came to 800 μg/mg creatinine. In addition, in the assay on FA-treated mice, the “FA-induced upregulation of fibrotic remodeling genes (TGF-β, fibronectin, MMP-2 and 9)” value was “greatly reduced”; the “increase in serum creatinine” value is “did not affect”; the “rate of tubular apoptosis” value was “did not affect”; the “rise in HeyL expression” value was “completely blunted”. Besides, in the assay with FA-treated mice, the tubular damage scores entry is “did not affect”. In assay [4], the “expression of Notch target gene HeyL” value is given as “reduced”; the “expression of pro-fibrotic genes collagen, fibronectin and alpha smooth muscle action” value was “reduced”; the “tubulointerstitial fibrosis (evaluated on PAS staining)” value is “reduced”.
For the compound `C[C@H](NC(=O)Cc1cc(F)cc(F)c1)C(=O)N[C@H](C(=O)OC(C)(C)C)c1ccccc1` [GSI IX, N—[N-(3,5-Difluorophenacetyl-L-alanyl)]-S-phenylglycine t-Butyl Ester], in the assay on ICN1, the “TGFβ induced increase of ICN1 levels” value was “fully sensitive”.
`CC(C)C[C@H](NC(=O)[C@H](Cc1ccccc1)C[C@@H](O)[C@H](Cc1ccccc1)NC(=O)OC(C)(C)C)C(=O)N[C@@H](Cc1ccccc1)C(N)=O` [GSI X, {1S-Benzyl-4R-[1-(1S-carbamoyl-2-phenethylcarbamoyl)-1S-3-methylbutylcarbamoyl]-2R-hydroxy-5-phenylpentyl}carbamic Acid tert-butyl Ester]: the “TGFβ induced increase of ICN1 levels” value with ICN1 is “fully sensitive”.
Take `COc1cccc(-c2cc(=O)c3ccccc3o2)c1N` [PD98059]: in the assay with ICN1, the “TGFβ induced increase of ICN1 levels” value is “not sensitive”.
`C[S+]([O-])c1ccc(-c2nc(-c3ccncc3)c(-c3ccc(F)cc3)[nH]2)cc1` (stereo not drawn) [SB203580]: the “ICN1 induced increase” value with podocytes [1] was “did not alter”. Besides, the “TGFβ induced increase of ICN1 levels” value in the assay on ICN1 is recorded as “not sensitive”.
With `Cc1ccc(C(=O)Cn2c3c(sc2=N)CCCC3)cc1` [pifithrin alpha], the “ICN1 induced increase” value with podocytes [1] is on record as “decreased”. Besides, in the assay with p21, the “TGFβ induced increase in p21 protein expression” value is “blocked”. Further, the “TGFβ induced increase in annexinV positive cell number” value with podocytes [3] was “prevented”.
With Z-vad, in the assay on podocytes [1] (podocytes with tamoxifen-induced ICN1, pretreatment with Z-vad (10 μM) or Z-LEHD (10 μM)), the “ICN1 induced apoptosis (AnnexinV/GFP positive cells)” value is recorded as “prevented”.
